From patent publication US9408391B2, “Fungicide composition comprising a tetrazolyloxime derivative and a thiazolylpiperidine derivative” (BAYER INTELLECTUAL PROPERTY GMBH, priority 2010, dated 2016)
Like-named read-outs stand apart in the source and are kept apart here.

Assays:
Phytophthora infestans = format: in vivo; details: tomato plants, preventive spray, evaluated 3 days after inoculation
Venturia inaequalis = assay: Venturia test (apples)/preventive; details: apple plants, preventive spray, 100 ppm a.i., evaluated 10 days after inoculation
Description: Venturia Test (Apples)/Preventive
Solvent: 24,5 parts by weight of acetone • 24,5 parts by weight of dimethylacetamide
Emulsifier: part by weight of alkylaryl polyglycol ether
After the spray coating has dried on the plants are inoculated with an aqueous conidia suspension of the causal agent of apple scab (Venturia inaequalis) and then remain for 1 day in an incubation cabinet at approximately 20° C. and a relative atmospheric humidity of 100%.
The plants are then placed in a greenhouse at approximately 21° C. and a relative atmospheric humidity of approximately 90%.
The test is evaluated 10 days after the inoculation.

Structure (SMILES)	Efficacy in % found (Phytophthora infestans; 1 ppm a.i.) [%]	Efficacy in % found (Venturia inaequalis) [%]	Efficacy in % found (Phytophthora infestans; 0.01 ppm a.i.) [%]
Cn1nnnc1/C(=N\OCc1cccc(NC(=O)OC(C)(C)C)n1)c1ccccc1 [(A2)]	46	22	
Cc1cc(C(F)(F)F)nn1CC(=O)N1CCC(c2nc(C3=NOC(c4c(F)cccc4F)C3)cs2)CC1 (stereo not shown) [(B2), 1-(4-{4-[5-(2,6-difluorophenyl)-4,5-dihydro-1,2-oxazol-3-yl]-1,3-thiazol-2-yl}piperidin-1-yl)-2-[5-methyl-3-(trifluoromethyl)-1H-pyrazol-1-yl]ethanone]		0	30
